Reference: patent publication US8771967B2, “Immunomodulation of functional T cell assays for diagnosis of infectious or autoimmune disorders” (priority 2010, dated 2014)

B1: IL-12: inflammatory cytokine purchased from R&D System (protein, UniProt P29459 23-219; P29460 23-328, looked up)
Interleukin-12 subunit alpha: RNLPVATPDPGMFPCLHHSQNLLRAVSNMLQKARQTLEFYPCTSEEIDHEDITKDKTSTVEACLPLELTKNESCLNSRETSFITNGSCLASRKTSFMMALCLSSIYEDLKMYQVEFKTMNAKLLMDPKRQIFLDQNMLAVIDELMQALNFNSETVPQKSSLEEPDFYKTKIKLCILLHAFRIRAVTIDRVMSYLNAS
Interleukin-12 subunit beta: IWELKKDVYVVELDWYPDAPGEMVVLTCDTPEEDGITWTLDQSSEVLGSGKTLTIQVKEFGDAGQYTCHKGGEVLSHSLLLLHKKEDGIWSTDILKDQKEPKNKTFLRCEAKNYSGRFTCWWLTTISTDLTFSVKSSRGSSDPQGVTCGAATLSAERVRGDNKEYEYSVECQEDSACPAAEESLPIEVMVDAVHKLKYENYTSSFFIRDIIKPDPPKNLQLKPLKNSRQVEVSWEYPDTWSTPHSYFSLTFCVQVQGKSKREKKDRVFTDKTSATVICRKNASISVRAQDRYYSSSWSEWASVPCS

What was measured:
[1] = tested on: M. tuberculosis-specific T cells; assay: QuantiFERON-TB Gold In-Tube (QFT-GIT) whole blood IFN-γ release assay with immunomodulation by TLR agonists; conditions: for IFN-γ responses compared to the standard assay in anergic subjects / IFN-γ response at intermediate concentration / enhancement of IFN-γ response (median): poly(I:C) 40 μg/ml, imiquimod 2 μg/ml; for IFN-γ responses compared to the standard assay in anergic subjects: P <0.05; for IFN-γ response compared to the standard assay, two concentrations: 8 subjects with LTBI, poly(I:C) 10 and 100 μg/ml, LPS 125 and 500 pg/ml, imiquimod 1 and 5 μg/ml; for enhancement of IFN-γ response (median): vs standard QFT-GIT; for recapitulation of the effects of TLR agonists on the QFT-GIT assay: IL-6 at 200 and 2000 pg/ml, IL-12 at 12.5 and 25 pg/ml, INF-α at 15 and 30 pg/ml, alone or in combination; for kinetics of IFN-γ release: QFT-GIT with immunomodulation vs without, correlated with cytokine induction / APC maturation
Excerpt: Healthy adults were recruited from the Stanford Hospital clinical laboratories using a protocol approved by the Institutional Review Board. After obtaining in informed consent, volunteers were asked to complete a standardized questionnaire to assess risk factors for TB exposure. LTBI was defined as prior history of positive TST and QFT-GIT and ≧1 risk factor for LTBI. Uninfected control was defined as US born with prior negative TST and QFT-GIT and no risk factors.
The QFT-GIT assay was performed according to package insert with a slight modification described below. Up to 10 μA of each TLR agonist or an equivalent volume of endotoxin-free water was added to each QFT-GIT tube. Blood was collected in a 10 mL Kendall Monoject Green Stopper tube and 1 mL was quickly transferred to each QFT-GIT tube. Tubes were placed in a 3TC incubator for 22 hours or as indicated. ELISA was performed according to package insert. […] Calculation of IFN-γ concentrations was done with the software provided by the manufacturer.
Statistical analyses were performed using the Prism software (Graph Pad, San Diego, Calif.). The Wilcoxon's test of medians was used to compare differences in medians. All statistical tests were computed for a two-sided type I error rate of 5%.

[2] = tested on: antigen presenting cells; assay: Flow cytometry of surface expression of MHC and costimulatory molecules in the QFT-GIT assay; assay type: cell-based, human; conditions: compared to unstimulated blood cells; LPS 250 pg/ml, poly(I:C) 40 μg/ml; 3 and 6 hours
Method: The QFT-GIT tubes were incubated upside down to prevent migration of cells into the gel layer. At the end of incubation 100 μl of 20 mM EDTA was added per tube. Samples were vortexed and incubated at room temperature for 15 minutes. Blood was transferred to a 15 ml polypropylene tube containing 9 ml of 1×FACS™ Lysing Solution (BD Biosciences, Immunocytometry Systems, San Jose, Calif.). Samples were incubated at room temperature for 10 minutes and directly transferred to a −70° C. freezer for storage. The cell surface immune profiling studies were performed at the HIMC. The cells were thawed in warm media, washed once with FACS buffer (PBS supplemented with 2% FBS and 0.1% sodium azide) and resuspended at 1×10^7 viable cells/ml. 5×10^5 cells per well were stained for 45 min at room temperature with the following antibodies: All reagents were purchased from BD Biosciences. Cells were washed three times with FACS buffer, and resuspended in […]. 10,000 cells per sample were collected using DIVA 6.0 software on an LSR11 flow cytometer (BD Biosciences). Data analysis was performed using FlowJo v9.3 by gating on live cells based on forward versus side scatter profiles, then on singlets using forward scatter area versus height, followed by cell subset-specific gating.

[3] = tested on: blood cells in the Nil tube; assay: Cytokine profiling of plasma from the QFT-GIT Nil tube after immunomodulation; assay type: cell-based, human; conditions: poly(I:C) 40 μg/ml, LPS 250 pg/ml, 22 h
Method: Was performed at the Human Immune Monitoring Center (HIMC) at Stanford University. 100 μl of plasma from the QFT-GIT Nil tube was subjected to cytokine profiling. Procarta Cytokine Assay custom 51-plex kit (Affymetrix, Palo Alto, Calif.) was used according to manufacturer's recommendations.

[4] = 8 individuals with histories of LTBI but currently negative QFT-GIT, LPS 250 pg/ml
[5] = subjects with LTBI, LPS 250 pg/ml
[6] = uninfected controls, LPS 250 pg/ml

Row | Molecule | IFN-γ responses compared to the standard assay in anergic subjects [1, 4] | IFN-γ response compared to the standard assay, two concentrations [1] | IFN-γ response at intermediate concentration [1, 5] | enhancement of IFN-γ response (median) [1, 5] [fold] | IFN-γ response at intermediate concentration [1, 6] | recapitulation of the effects of TLR agonists on the QFT-GIT assay [1] | surface expression of MHC II and costimulatory molecules in monocytes and partially in B cells and myeloid dendritic cells [2] | consistency in eliciting a response higher than the cutoff value for the standard assay ([1]; 8 individuals with histories of LTBI but currently negative QFT-GIT, cutoff 0.35 IU/ml) | kinetics of IFN-γ release [1] | magnitude of the IFN-γ responses (TB Ag minus Nil) [1, 6] [IU/ml] | levels of IL-6, IL-12 p40, IFN-α, and other cytokines [3]
1 | CC(C)Cn1cnc2c(N)nc3ccccc3c21 [imiquimod] | significantly increased | dose-dependent enhancement | significant enhancement | 3 | not in the uninfected controls |  |  |  |  |  | 
2 | IL-6: inflammatory cytokine purchased from R&D System |  |  |  |  |  | failed to recapitulate |  |  |  |  | 
3 | lipopolysaccharide [LPS] | significantly increased | dose-dependent enhancement | significant enhancement | 3.1 | significantly increased |  | increased | most consistent | earlier and more robust release of IFN-γ | ≤ 0.5 | significantly increased
4 | poly(I:C) | significantly increased | dose-dependent enhancement | significant enhancement | 5.7 | not in the uninfected controls |  | not |  | earlier and more robust release of IFN-γ |  | significantly increased
5 | B1 |  |  |  |  |  | failed to recapitulate |  |  |  |  | 
